Consider three molecules from ChEMBL document CHEMBL4325853, “Design, synthesis and antibacterial evaluation of 2,4-disubstituted-6-thiophenyl-pyrimidines” (Eur J Med Chem, 2019).

Molecules are shown by their SMILES. Active and inactive are the calls of the source. The rule behind the calls is not given here.

Data set [1] has as its target T1, Cell division protein FtsZ (Staphylococcus aureus) (UniProt P0A031).
T1 sequence (whole entry): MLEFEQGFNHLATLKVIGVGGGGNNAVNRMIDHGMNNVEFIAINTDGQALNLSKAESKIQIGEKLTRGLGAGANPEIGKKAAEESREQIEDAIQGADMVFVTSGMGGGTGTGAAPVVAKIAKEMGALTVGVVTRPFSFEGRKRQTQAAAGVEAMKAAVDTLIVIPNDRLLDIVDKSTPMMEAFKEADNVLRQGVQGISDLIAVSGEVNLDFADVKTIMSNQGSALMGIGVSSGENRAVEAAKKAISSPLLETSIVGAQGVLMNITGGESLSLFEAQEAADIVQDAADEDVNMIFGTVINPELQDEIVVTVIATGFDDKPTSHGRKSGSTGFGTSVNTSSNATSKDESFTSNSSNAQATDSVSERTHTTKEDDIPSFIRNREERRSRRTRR
Kind of data set: Inhibition of recombinant Staphylococcus aureus FtsZ polymerization by 90 degree light scattering-based fluorescence spectrometric analysis.

Data set [2] concerns the target T1, Cell division protein FtsZ (Staphylococcus aureus). In words: Inhibition of recombinant Staphylococcus aureus FtsZ polymerization assessed as reduction in size of protein polymers at 4 ug/ml preincubated for 10 mins followed by GTP addition and measured after 15 mins by transmission electron microscopic method.
The target is the same in data set [3]. Kind of data set: Inhibition of recombinant Staphylococcus aureus FtsZ polymerization assessed as reduction in bundling of protein protofilaments at 4 ug/ml preincubated for 10 mins followed by GTP addition and measured after 15 mins by transmission electron microscopic method.
Data set [4] shares this target. Kind of data set: Inhibition of recombinant Staphylococcus aureus FtsZ GTPase activity assessed as reduction in inorganic phosphate formation after 30 mins by colorimetric method.
Data set [5] has the same target. In words: Inhibition of recombinant Staphylococcus aureus FtsZ GTPase activity assessed as reduction in inorganic phosphate formation at 2 ug/ml after 30 mins by colorimetric method relative to control.
For data set [6] the target is unchanged. Kind of data set: Inhibition of recombinant Staphylococcus aureus FtsZ GTPase activity assessed as reduction in inorganic phosphate formation at 16 ug/ml after 30 mins by colorimetric method relative to control.
A further data set has as its system Bacillus subtilis. Kind of data set: Induction of morphological changes in Bacillus subtilis 168 assessed as cell length at 2 ug/ml after 4.5 hrs by phase contrast microscopic analysis (reference value: 5 to 10 micrometer). In kind it is functional, subsp. subtilis str. 168.
A short description of data set [7]: Selectivity index, ratio of HC50 for human erythrocytes to MIC for methicillin-resistant Staphylococcus aureus ATCC 33591. Format: toxicity. The conditions noted are these: read-out: Selectivity Index.
The nature of data set [8]: Selectivity index, ratio of HC50 for human erythrocytes to MIC for methicillin-resistant Staphylococcus aureus ATCC 33592. In kind it is toxicity. Particulars: read-out: Selectivity Index.
Data set [9] can be described thus: Selectivity index, ratio of HC50 for human erythrocytes to MIC for methicillin-resistant Staphylococcus aureus ATCC 43300. Particulars: read-out: Selectivity Index. In kind it is toxicity.
In data set [10] the test system is Staphylococcus aureus. In words: Ratio of MIC for Staphylococcus aureus ATCC 29213 after and before 5 serial passages. Format: functional.
Data set [11] deals with Staphylococcus aureus. In words: Ratio of MIC for Staphylococcus aureus ATCC 29213 after and before 5 to 21 serial passages. Format: functional.

A word on the inhibition: it is the drop in the measured response relative to a control, in per cent. Regarding `CC(C)c1ccc(CN2CCCN(CCc3cc(-c4cccs4)nc(-c4ccncc4)n3)CC2)cc1`, the inhibition result in data set [1] was “Dose-dependent effect”; in data set [4], “Dose-dependent effect”; in [5], 25%; in [6], 70%. The inhibition result in data set [2] and in data set [3] was “Active” throughout. Further, in the data set on Bacillus subtilis, the Activity was above 20 um. Also, the selectivity ratio in [7], in data set [8] and in [9] was above 32 throughout.

On to `CC(C)(C)c1ccc(CN2CCCN(CCc3cc(-c4cccs4)nc(-c4ccncc4)n3)CC2)cc1`, for which the inhibition result in data set [4] is “Dose-dependent effect”. The selectivity ratio in [7], in data set [8] and in [9] was above 32 each time.

`COc1cccc(OC)c1C(=O)N[C@@H]1C(=O)N2[C@@H]1SC(C)(C)[C@@H]2C(=O)O` [METHICILLIN]: the Ratio amounted to 4 in the data set on Staphylococcus aureus [10] and 32 in the data set on Staphylococcus aureus [11].
